# According to patent US11746087B1, “C4-carboxylic acid-substituted tryptamine derivatives and methods of using” (priority 2022, dated 2023):
# Legend:
# [1] = target: 5-HT2A receptor (Homo sapiens, UniProt P28223); experiment: [3H]ketanserin competition binding assay (SPA); conditions: 1 nM [3H]ketanserin; control ligands, FIG. 3E, 3F
# [2] = target: T1, 5-HT1A receptor (Homo sapiens, UniProt P08908); experiment: cAMP-Glo assay in +5-HT1A vs −5-HT1A CHO-K1 cells; format: cell-based; conditions: for cAMP levels in +5-HT1A cells with increasing ligand: cells stimulated with 4 mM forskolin, compared with −5-HT1A cells; for 5-HT1A receptor modulation, +5-HT1A vs −5-HT1A cultures: cAMP assay with 4 mM forskolin
# T1 construct: host or cells: CHO-K1 (co-expressing Ga15)
# T1 sequence (P08908 1-422): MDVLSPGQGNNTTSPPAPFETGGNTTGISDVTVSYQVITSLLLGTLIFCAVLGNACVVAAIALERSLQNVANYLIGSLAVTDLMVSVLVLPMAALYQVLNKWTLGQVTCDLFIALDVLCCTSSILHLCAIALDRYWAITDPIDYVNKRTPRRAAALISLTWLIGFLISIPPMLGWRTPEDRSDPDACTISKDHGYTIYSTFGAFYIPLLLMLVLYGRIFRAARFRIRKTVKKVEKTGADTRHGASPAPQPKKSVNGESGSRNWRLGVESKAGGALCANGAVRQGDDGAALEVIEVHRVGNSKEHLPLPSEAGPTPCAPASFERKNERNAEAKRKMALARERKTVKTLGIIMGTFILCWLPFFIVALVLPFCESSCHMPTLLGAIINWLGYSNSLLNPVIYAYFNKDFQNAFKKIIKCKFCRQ
# [3] = target: T2, 5-HT2A receptor (Mus musculus, UniProt P35363); experiment: Drug-induced Head Twitch Response (HTR); format: in vivo; conditions: C57BL/6 mice; 1 mg/kg i.p.; 15-to-30-minute window after administration
# T2 construct: 8-week old C57BL/6-Elite male and female mice were obtained from Charles River; tissue Charles River; host or cells: living C57BL/6-Elite mice (neuronal receptor, in vivo)
# [4] = Metabolic stability / psilocin release in human liver S9; format: in vitro ADME; conditions: 400 μg/ml HLS9, NADPH, 37° C.
# Text: (§1) A fundamental evaluation in drug development is the assessment of absorption, distribution, metabolism, excretion, and pharmacokinetics (ADME/PK) (Eddershaw et al., 2000, Drug Discovery Today 5(9): 409-414). […] Drug stability upon exposure to human liver microsomes and liver S9 cellular fractions is a common in vitro assay to approximate in vivo, liver-based drug metabolism (Richardson et al., 2016 Drug Metabolism Letters 10:83-90). First-pass metabolism is also often approximated in vitro using intestinal microsome and cellular S9 fractions (Hatley et al., 2017, Biopharmaceuticals & Drug Disposition, 38(2):155-160). […] Supernatants were analyzed for the presence of candidate prodrugs (parent molecule) and psilocin (the predicted metabolite) using Orbitrap LC-MS (Thermo Scientific) using previously described methods (Menéndez-Perdomo et al., 2021, J Mass Spectrom, 56: e4683). […] Assay concentrations (μM) of both parent ‘prodrug’ molecule and psilocin metabolite, as quantified through LC-MS using routine standard curve procedures, were plotted as functions of assay time (minutes). The metabolism rate (T1/2) was determined from the metabolism curve plot using the one phase decay feature of GraphPad PRISM software (Version 9.2.0). The quantity of parent prodrug at time zero was set as 100%. […]
# [5] = Mouse PK study (IV and PO), plasma parent compound and psilocin by LC-MS/MS; format: in vivo; conditions: mouse; for Plasma concentration of psilocybin: psilocybin 1 mg/kg i.v.
# Text: Briefly, the procedure was as follows. […] 19, 2022.
# [6] = Metabolic stability / psilocin release in human liver microsomes; format: in vitro ADME; conditions: 400 μg/ml HLM, NADPH, 37° C.
# Text: as §1
# [7] = Stability / psilocin release in enzyme-free control buffer; format: in vitro ADME; conditions: enzyme-free control buffer pH 7.4, 37° C., 2 hours
# Text: as §1
# T2 sequence (P35363 whole entry): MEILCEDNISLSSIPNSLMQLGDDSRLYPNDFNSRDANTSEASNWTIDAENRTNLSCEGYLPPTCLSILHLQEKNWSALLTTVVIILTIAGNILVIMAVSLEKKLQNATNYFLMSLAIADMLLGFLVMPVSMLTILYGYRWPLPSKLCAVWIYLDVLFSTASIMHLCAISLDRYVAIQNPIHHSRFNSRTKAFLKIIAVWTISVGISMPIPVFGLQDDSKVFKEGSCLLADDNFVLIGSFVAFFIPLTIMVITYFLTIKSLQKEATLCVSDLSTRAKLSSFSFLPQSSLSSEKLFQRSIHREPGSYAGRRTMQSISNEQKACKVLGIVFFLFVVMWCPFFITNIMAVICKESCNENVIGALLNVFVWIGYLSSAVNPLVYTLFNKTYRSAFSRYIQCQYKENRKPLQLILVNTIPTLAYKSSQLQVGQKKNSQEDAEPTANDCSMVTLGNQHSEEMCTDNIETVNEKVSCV
# 5-HT2A receptor (Homo sapiens, UniProt P28223), sequence (P28223 whole entry): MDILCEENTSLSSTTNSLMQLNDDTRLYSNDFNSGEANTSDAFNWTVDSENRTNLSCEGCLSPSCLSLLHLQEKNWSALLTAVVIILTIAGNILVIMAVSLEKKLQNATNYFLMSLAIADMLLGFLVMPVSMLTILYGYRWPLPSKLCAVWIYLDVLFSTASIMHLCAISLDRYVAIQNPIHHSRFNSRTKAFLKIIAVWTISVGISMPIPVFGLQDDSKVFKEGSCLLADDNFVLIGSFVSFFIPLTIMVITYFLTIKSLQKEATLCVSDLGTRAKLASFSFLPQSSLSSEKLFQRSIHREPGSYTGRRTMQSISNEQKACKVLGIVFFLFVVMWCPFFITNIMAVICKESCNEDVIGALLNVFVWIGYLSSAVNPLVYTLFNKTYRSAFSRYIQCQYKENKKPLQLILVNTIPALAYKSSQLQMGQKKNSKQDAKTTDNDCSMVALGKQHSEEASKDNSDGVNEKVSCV
compound,measurement,setting,value
"CN(C)CCc1c[nH]c2cccc(O)c12 [psilocin, reference compound]",competition binding vs [3H]ketanserin at 5-HT2A receptor,[1],binding
same,cAMP levels in +5-HT1A cells with increasing ligand,[2],reduction in cAMP levels
COCCOCCOCC(=O)Oc1cccc2[nH]cc(CCN(C)C)c12 [C(III)],"5-HT1A receptor modulation, +5-HT1A vs −5-HT1A cultures",[2],significant receptor modulation
same,Head Twitch Response (HTR) incidence relative to vehicle,[3],Elevated incidences of HTR
"N[C@@H](Cc1c[nH]c2ccccc12)C(=O)O [tryptophan, reference compound]",competition binding vs [3H]ketanserin at 5-HT2A receptor,[1],no binding
same,cAMP levels in +5-HT1A cells with increasing ligand,[2],no reduction in cellular cAMP levels
"CN(C)CCc1c[nH]c2cccc(OP(=O)(O)O)c12 [psilocybin, reference compound]",stability / conversion to psilocin in liver fractions (HLS9),[4],stable in liver fractions with no conversion to psilocin
same,"detectability of parent compound in plasma, i.v. dosing",[5]; 1 mg/kg i.v.,only detectable in i.v. administered animals
same,"detectability of parent compound in plasma, oral dosing","[5]; oral, any dose (1, 3, 10 mg/kg)",not detectable
same,Plasma concentration of psilocybin,[5]; 2 h,No Peak
same,Plasma concentration of psilocybin,[5]; 4 h,No Peak
same,Plasma concentration of psilocybin,[5]; 6 h,No Peak
same,Plasma concentration of psilocin,"[5]; psilocybin 1.56 mg/kg oral (nominal 1 mg/kg), 24 h",BLQ
same,stability / conversion to psilocin in liver fractions (HLM),[6],stable in liver fractions with no conversion to psilocin
same,stability in assay buffer,[7],stability of psilocybin was confirmed
CN(C)CCc1c[nH]c2cccc(OC(=O)c3cccc(C(=O)Oc4cccc5[nH]cc(CCN(C)C)c45)c3)c12 [C(VII)],"5-HT1A receptor modulation, +5-HT1A vs −5-HT1A cultures",[2],no significant receptor modulation
same,Head Twitch Response (HTR) incidence relative to vehicle,[3],Elevated incidences of HTR
"NCCc1c[nH]c2ccc(O)cc12 [serotonin, reference compound]",cAMP levels in +5-HT1A cells with increasing ligand,[2],reduction in cAMP levels
COC(=O)c1cccc(C(=O)Oc2cccc3[nH]cc(CCN(C)C)c23)c1 [C(XLIII)],"5-HT1A receptor modulation, +5-HT1A vs −5-HT1A cultures",[2],receptor modulation at higher ligand concentrations
